Laboratory results taken from patent publication US12268702B2, “Antitumor pharmaceutical composition comprising azvudine and chemotherapeutic agent” (HENAN GENUINE BIOTECH CO., LTD., priority 2023, dated 2025).

Tested on: A2058 xenograft tumor model
Assay: Human melanoma A2058 cell subcutaneous xenograft tumor model
Format: in vivo
Details: azvudine 1 mg/kg, dacarbazine 60 mg/kg, combination 1 + 60 mg/kg; for Tumor volume (mm^3) on the 14th day: 14th day of administration
Protocol: Human melanoma cells A2058 (Cat. No.: CRL-11147) were cultured in vitro as a monolayer in DMEM medium containing 10% fetal bovine serum, 100 U/mL penicillin and 100 μg/mL streptomycin, in a 37° C. and 5% CO2 incubator. The cells were routinely digested with trypsin-EDTA and passaged twice a week. When the cell saturation reached 80%-90% and the cell number achieved the requirement, the cells were collected, counted and inoculated.
0.2 mL (5×10^6) of A2058 cells were added with Matrigel, and the mixture was subcutaneously inoculated on the right back of each mouse. The grouping administration was started when the average tumor volume reached about 136 mm^3.

[1] = based on tumor volume, 14th day

## CN(C)/N=N/c1[nH]cnc1C(N)=O [Dacarbazine, dacarbazine]
  Tumor volume (mm^3) on the 14th day: 1,255 ± 186 mm^3
Listed as dacarbazine
  Tumor volume (mm^3) on the 14th day: 1255 mm^3
[1]
  T/C (%): 44.77%
  TGI (%): 56.74%
